# Reference: patent publication US5571799A, “(2'-5') oligoadenylate analogues useful as inhibitors of host-v5.-graft response” (Basco, Ltd., priority 1994, dated 1996)
# Entries after “also recorded” stand apart in the source; their conditions may differ.
# What was measured:
# [1] = tested on: snake venom phosphodiesterase; assay: Stability to the action of snake venom phosphodiesterase; assay type: in vitro ADME
# Experimental: Determination of (2'-5')oligoadenylates and analogues stability to the action of snake venom phosphodiesterase
# Upon entering an organism 2'-5'A3 and the analogues are quickly hydrolyzed to monomeric compound(s). Prior to administration of 2'-5'A3 analogues in vivo to animal, it was considered necessary to determine their stability towards snake venom phosphodiesterase in comparison to the parent 2'-5'A3.
# The solution of 3 μg of the snake venom phosphodiesterase (Boehringer Mannheim cat. No. 108260) in 30 μl of 0.1 M Tris HCl buffer, containing 0.002 M MgCl2 (pH 8.78) is added to the solution of 4-5·10^-7 M trimer in 100 μl of the same buffer. The solution was left standing at 20° C. At regular intervals, 10 μl samples were taken, heated at 90° C. for 1 minute and preparative thin layer chromatography was performed on the Silufole™ plates, using a 7:1:2 mixture of isopropanol:aqueous ammonia:water.
# The spot, corresponding to the initial trimer, was cut out, the substance was extracted with 2 ml of 0.5% solution of the dodecylsulfate sodium salt solution for 2 hours, and the optical density of the solution was determined at 260 nm.
# IgG, IgA, IgM = assay: Immune system of monkeys: serum immunoglobulins by radial immunodiffusion; assay type: in vivo, Macaque Rh. monkeys
# Experimental: (§1) Immunosuppressive activity of the prototype 2'-5'A3 and two analogues (2'-5')A2 Ar-epoxy and (2'-5')A2 A^l-epoxy were investigated in monkeys. The experiments were performed on 4 year-old Macaque Rh. monkeys. The levels of the principal subpopulations of T-lymphocytes, IgA, IgG, IgM and the amount of α- and γ-interferon and interleukin II after administration (2'-5')olygoadenylate and its analogies at the concentration of 50 and 25 μg/kg of the body weight was investigated.
# IMMUNOGLOBULIN DETERMINATION
# (§2) Serum levels of IgG, IgA, IgM were determined by radial immunodiffusion using antisera against human immunoglobulin A, M, G. The amount of interferon and interleukine-II were determined by the method of Lopez-Botet M. et al., 1982.
# [2] = tested on: α-interferon and γ-interferon; assay: Immune system of monkeys: α- and γ-interferon; assay type: in vivo, Macaque Rh. monkeys
# Experimental: as §1, §2
# [3] = tested on: T-helper and T-killer cells; assay: T-helper and T-killer cells in monkeys after kidney transplantation; assay type: in vivo, Macaque Rh. monkeys; conditions: 50 μg/kg IV every 48 hours; first two post-surgical weeks
# Experimental: The experiments were performed on 4 year-old Macaque Rh. monkeys. Each cohort consisted of 3 animals. […] The results of the experiments were evaluated clinically: by the presence or absence of urination from the ureterocutaneostoma.
# During our experiments we have divided monkeys into two groups, three monkeys to each group. For the first group (2'-5')A2 Ar-epoxy was administered intravenously at concentration of 50 μg/kg two days before the operation and at the second, sixth, and twelfth day after the operation and then every sixth day. […] After transplantation kidney functions were restored within 10 hours.
# The administration schedule of (2'-5')A2 Ar-epoxy was modified slightly for the second group of monkeys. The preparation was injected two days before the operation and every other day at a concentration of 50 μg/kg during the entire post-transplantation period. […] The number of T-helpers dropped correspondingly from 37% to 7%. […] During the entire postoperative period, this activity tendency continues.
# [4] = single IV 25 μg/kg, day 0 (baseline)
# [5] = single IV 50 μg/kg, day 0 (baseline)
substance,measurement,setting,value
"Adenylyl (2'-5')adenylyl (2'-5')-9-(2,3-anhydro-β-D-ribofuranosyl) adenine disodium salt [(2'-5')A2 Ar-epoxy]",T 1/2 (time for optical density of initial trimer to decrease by 50%),"[1]; 20° C., 0.1 M Tris HCl, 0.002 M MgCl2, pH 8.78",16.0 h
same,stability / resistance to phosphodiesterase,"[1]; in words, disodium salt",significantly more resistant towards hydrolysis by phosphodiesterase; also recorded: more resistant to phosphodiesterase than (2'-5')A2 A^l-epoxy
same,resistance to snake venom phosphodiesterase relative to prototype 2'-5'A3,[1]; vs 2'-5'A3,35 fold
same,IgA,"IgG, IgA, IgM; [4]",2.8 g/L
same,IgG,"IgG, IgA, IgM; [4]",7.5 g/L
same,IgM,"IgG, IgA, IgM; [4]",0.5 g/L
same,IgA,"IgG, IgA, IgM; single IV 25 μg/kg, day 1",2.0 g/L
same,IgG,"IgG, IgA, IgM; single IV 25 μg/kg, day 1",7.4 g/L
same,IgM,"IgG, IgA, IgM; single IV 25 μg/kg, day 1",0.6 g/L
same,IgA,"IgG, IgA, IgM; single IV 25 μg/kg, day 2",1.1 g/L
same,IgG,"IgG, IgA, IgM; single IV 25 μg/kg, day 2",5.2 g/L
same,IgM,"IgG, IgA, IgM; single IV 25 μg/kg, day 2",1.0 g/L
same,IgA,"IgG, IgA, IgM; single IV 25 μg/kg, day 8",0.53 g/L
same,IgG,"IgG, IgA, IgM; single IV 25 μg/kg, day 8",14.5 g/L
same,IgM,"IgG, IgA, IgM; single IV 25 μg/kg, day 8",1.41 g/L
same,IgA,"IgG, IgA, IgM; single IV 25 μg/kg, day 21",0.38 g/L
same,IgG,"IgG, IgA, IgM; single IV 25 μg/kg, day 21",14.48 g/L
same,IgM,"IgG, IgA, IgM; single IV 25 μg/kg, day 21",1.2 g/L
same,IgA,"IgG, IgA, IgM; [5]",2.8 g/L
same,IgG,"IgG, IgA, IgM; [5]",9.6 g/L
same,IgM,"IgG, IgA, IgM; [5]",0.6 g/L
same,IgA,"IgG, IgA, IgM; single IV 50 μg/kg, day 1",2.7 g/L
same,IgG,"IgG, IgA, IgM; single IV 50 μg/kg, day 1",7.8 g/L
same,IgM,"IgG, IgA, IgM; single IV 50 μg/kg, day 1",0.5 g/L
same,IgA,"IgG, IgA, IgM; single IV 50 μg/kg, day 2",0.8 g/L
same,IgG,"IgG, IgA, IgM; single IV 50 μg/kg, day 2",15.0 g/L
same,IgM,"IgG, IgA, IgM; single IV 50 μg/kg, day 2",1.1 g/L
same,IgA,"IgG, IgA, IgM; single IV 50 μg/kg, day 8",0.9 g/L
same,IgG,"IgG, IgA, IgM; single IV 50 μg/kg, day 8",14.8 g/L
same,IgM,"IgG, IgA, IgM; single IV 50 μg/kg, day 8",0.9 g/L
same,IgA,"IgG, IgA, IgM; single IV 50 μg/kg, day 21",0.38 g/L
same,IgG,"IgG, IgA, IgM; single IV 50 μg/kg, day 21",13.2 g/L
same,IgM,"IgG, IgA, IgM; single IV 50 μg/kg, day 21",0.78 g/L
same,"effect on interferon, in words","[2]; monkeys, single IV, two weeks, disodium salt",stimulates the level of α-interferon and γ-interferon in blood lymphocytes for a period of two weeks; also recorded: the quantity of α-interferon in blood plasma tends to normalize; also recorded: does not suppress the production of γ-interferon
same,α-interferon of lymphocytes,[2]; [4],"16 Units per 10,000 lymphocytes"
same,α-interferon of plasma,[2]; [4],"8 Units per 10,000 lymphocytes"
same,γ-interferon of lymphocytes,[2]; [4],"4 Units per 10,000 lymphocytes"
same,α-interferon of lymphocytes,"[2]; single IV 25 μg/kg, day 1","32 Units per 10,000 lymphocytes"
same,α-interferon of plasma,"[2]; single IV 25 μg/kg, day 1","8 Units per 10,000 lymphocytes"
same,γ-interferon of lymphocytes,"[2]; single IV 25 μg/kg, day 1","16 Units per 10,000 lymphocytes"
same,α-interferon of lymphocytes,"[2]; single IV 25 μg/kg, day 2","32 Units per 10,000 lymphocytes"
same,α-interferon of plasma,"[2]; single IV 25 μg/kg, day 2","4 Units per 10,000 lymphocytes"
same,γ-interferon of lymphocytes,"[2]; single IV 25 μg/kg, day 2","16 Units per 10,000 lymphocytes"
same,α-interferon of lymphocytes,"[2]; single IV 25 μg/kg, day 12","32 Units per 10,000 lymphocytes"
same,α-interferon of plasma,"[2]; single IV 25 μg/kg, day 12","4 Units per 10,000 lymphocytes"
same,γ-interferon of lymphocytes,"[2]; single IV 25 μg/kg, day 12","16 Units per 10,000 lymphocytes"
same,α-interferon of lymphocytes,"[2]; single IV 25 μg/kg, day 21","16 Units per 10,000 lymphocytes"
same,α-interferon of plasma,"[2]; single IV 25 μg/kg, day 21","4 Units per 10,000 lymphocytes"
same,γ-interferon of lymphocytes,"[2]; single IV 25 μg/kg, day 21","8 Units per 10,000 lymphocytes"
same,α-interferon of lymphocytes,[2]; [5],"32 Units per 10,000 lymphocytes"
same,α-interferon of plasma,[2]; [5],"16 Units per 10,000 lymphocytes"
same,γ-interferon of lymphocytes,[2]; [5],"4 Units per 10,000 lymphocytes"
same,α-interferon of lymphocytes,"[2]; single IV 50 μg/kg, day 1","32 Units per 10,000 lymphocytes"
same,α-interferon of plasma,"[2]; single IV 50 μg/kg, day 1","32 Units per 10,000 lymphocytes"
same,γ-interferon of lymphocytes,"[2]; single IV 50 μg/kg, day 1","8 Units per 10,000 lymphocytes"
same,α-interferon of lymphocytes,"[2]; single IV 50 μg/kg, day 2","64 Units per 10,000 lymphocytes"
same,α-interferon of plasma,"[2]; single IV 50 μg/kg, day 2","4 Units per 10,000 lymphocytes"
same,γ-interferon of lymphocytes,"[2]; single IV 50 μg/kg, day 2","32 Units per 10,000 lymphocytes"
same,α-interferon of lymphocytes,"[2]; single IV 50 μg/kg, day 12","64 Units per 10,000 lymphocytes"
same,α-interferon of plasma,"[2]; single IV 50 μg/kg, day 12","4 Units per 10,000 lymphocytes"
same,γ-interferon of lymphocytes,"[2]; single IV 50 μg/kg, day 12","32 Units per 10,000 lymphocytes"
same,α-interferon of lymphocytes,"[2]; single IV 50 μg/kg, day 21","32 Units per 10,000 lymphocytes"
same,α-interferon of plasma,"[2]; single IV 50 μg/kg, day 21","4 Units per 10,000 lymphocytes"
same,γ-interferon of lymphocytes,"[2]; single IV 50 μg/kg, day 21","8 Units per 10,000 lymphocytes"
same,retained level of T-helper and T-killer cells relative to normal value,[3],30%
